# Data taken from PubChem BioAssay AID1259407 (Chemical Carcinogenesis Research Information System (CCRIS), 2018).
# The source made the active and inactive calls. How the calls were made is not given here.
# Test system: CCRIS mutagenicity, Ames/micronucleus/aberration tests
# Assay: CCRIS mutagenicity studies
# [1] = Test System: AMES SALMONELLA TYPHIMURIUM, Strain/Indicator: TA97, Metabolic Activation: NONE, Method: PREINCUBATION
# [2] = Test System: AMES SALMONELLA TYPHIMURIUM, Strain/Indicator: TA97, Metabolic Activation: RAT, LIVER, S-9, AROCLOR 1254 (10%), Method: PREINCUBATION
# [3] = Test System: AMES SALMONELLA TYPHIMURIUM, Strain/Indicator: TA98, Metabolic Activation: NONE, Method: PREINCUBATION
# [4] = Test System: AMES SALMONELLA TYPHIMURIUM, Strain/Indicator: TA98, Metabolic Activation: RAT, LIVER, S-9, AROCLOR 1254 (10%), Method: PREINCUBATION
# [5] = Test System: AMES SALMONELLA TYPHIMURIUM, Strain/Indicator: TA100, Metabolic Activation: NONE, Method: PREINCUBATION
# [6] = Test System: AMES SALMONELLA TYPHIMURIUM, Strain/Indicator: TA100, Metabolic Activation: RAT, LIVER, S-9, AROCLOR 1254 (10%), Method: PREINCUBATION
# [7] = Test System: AMES SALMONELLA TYPHIMURIUM, Strain/Indicator: TA1535, Metabolic Activation: NONE, Method: PREINCUBATION
# [8] = Test System: AMES SALMONELLA TYPHIMURIUM, Strain/Indicator: TA1537, Metabolic Activation: NONE, Method: PREINCUBATION
# [9] = Test System: AMES SALMONELLA TYPHIMURIUM, Strain/Indicator: TA102, Metabolic Activation: NONE, Method: PREINCUBATION
# [10] = Test System: AMES SALMONELLA TYPHIMURIUM, Strain/Indicator: TA100, Metabolic Activation: NONE, Method: STANDARD PLATE
# [11] = Test System: AMES SALMONELLA TYPHIMURIUM, Strain/Indicator: TA98, Metabolic Activation: NONE, Method: STANDARD PLATE
smiles,measurement,setting,value
CC=C(C)C#N,mutagenic call,"Test System: AMES SALMONELLA TYPHIMURIUM, Strain/Indicator: TA97, Metabolic Activation: HAMSTER, LIVER, S-9, AROCLOR 1254 (10 OR 30%), Method: PREINCUBATION",inactive; negative
same,mutagenic call,"Test System: AMES SALMONELLA TYPHIMURIUM, Strain/Indicator: TA97, Metabolic Activation: HAMSTER, LIVER, S-9, AROCLOR 1254 (30%), Method: PREINCUBATION",inactive; negative
same,mutagenic call,[1],inactive; negative
same,mutagenic call,[2],inactive; negative
same,mutagenic call,"Test System: AMES SALMONELLA TYPHIMURIUM, Strain/Indicator: TA98, Metabolic Activation: HAMSTER, LIVER, S-9, AROCLOR 1254 (10%), Method: PREINCUBATION",inactive; negative
same,mutagenic call,"Test System: AMES SALMONELLA TYPHIMURIUM, Strain/Indicator: TA98, Metabolic Activation: HAMSTER, LIVER, S-9, AROCLOR 1254 (30%), Method: PREINCUBATION",inactive; negative
same,mutagenic call,[3],inactive; negative
same,mutagenic call,[4],inactive; negative
same,mutagenic call,"Test System: AMES SALMONELLA TYPHIMURIUM, Strain/Indicator: TA98, Metabolic Activation: RAT, LIVER, S-9, AROCLOR 1254 (30%), Method: PREINCUBATION",inactive; negative
same,mutagenic call,"Test System: AMES SALMONELLA TYPHIMURIUM, Strain/Indicator: TA100, Metabolic Activation: HAMSTER, LIVER, S-9, AROCLOR 1254 (10%), Method: PREINCUBATION",inactive; negative
same,mutagenic call,"Test System: AMES SALMONELLA TYPHIMURIUM, Strain/Indicator: TA100, Metabolic Activation: HAMSTER, LIVER, S-9, AROCLOR 1254 (30%), Method: PREINCUBATION",inactive; negative
same,mutagenic call,[5],inactive; negative
same,mutagenic call,[6],inactive; negative
same,mutagenic call,"Test System: AMES SALMONELLA TYPHIMURIUM, Strain/Indicator: TA100, Metabolic Activation: RAT, LIVER, S-9, AROCLOR 1254 (30%), Method: PREINCUBATION",inactive; negative
same,mutagenic call,"Test System: AMES SALMONELLA TYPHIMURIUM, Strain/Indicator: TA1535, Metabolic Activation: HAMSTER, LIVER, S-9, AROCLOR 1254 (10 OR 30%), Method: PREINCUBATION",inactive; negative
same,mutagenic call,[7],inactive; negative
same,mutagenic call,"Test System: AMES SALMONELLA TYPHIMURIUM, Strain/Indicator: TA1535, Metabolic Activation: RAT, LIVER, S-9, AROCLOR 1254 (10%), Method: PREINCUBATION",inactive; negative
same,mutagenic call,"Test System: AMES SALMONELLA TYPHIMURIUM, Strain/Indicator: TA1537, Metabolic Activation: HAMSTER, LIVER, S-9, AROCLOR 1254 (30%), Method: PREINCUBATION",inactive; negative
same,mutagenic call,[8],inactive; negative
same,mutagenic call,"Test System: AMES SALMONELLA TYPHIMURIUM, Strain/Indicator: TA1537, Metabolic Activation: RAT, LIVER, S-9, AROCLOR 1254 (30%), Method: PREINCUBATION",inactive; negative
CN(C)c1ccc(N=O)cc1,mutagenic call,"Test System: AMES SALMONELLA TYPHIMURIUM, Strain/Indicator: TA100, Metabolic Activation: NONE, Method: FLUCTUATION TEST",active; positive
NCc1ccc(CN)cc1,mutagenic call,"End Point: IN VITRO CHROMOSOMAL ABERRATIONS, Test System: CHL CELLS, Metabolic Activation: NONE",inactive; negative
same,mutagenic call,"End Point: IN VITRO CHROMOSOMAL ABERRATIONS, Test System: CHL CELLS, Metabolic Activation: RAT, LIVER, S-9, SODIUM PHENOBARBITAL AND 5,6-BENZOFLAVONE",inactive; negative
same,mutagenic call,[3],inactive; negative
same,mutagenic call,"Test System: AMES SALMONELLA TYPHIMURIUM, Strain/Indicator: TA98, Metabolic Activation: RAT, LIVER, S-9, PHENOBARBITAL AND BETA-NAPHTHOFLAVONE, Method: PREINCUBATION",inactive; negative
same,mutagenic call,[5],inactive; negative
same,mutagenic call,"Test System: AMES SALMONELLA TYPHIMURIUM, Strain/Indicator: TA100, Metabolic Activation: RAT, LIVER, S-9, PHENOBARBITAL AND BETA-NAPHTHOFLAVONE, Method: PREINCUBATION",inactive; negative
same,mutagenic call,[9],inactive; negative
same,mutagenic call,"Test System: AMES SALMONELLA TYPHIMURIUM, Strain/Indicator: TA102, Metabolic Activation: RAT, LIVER, S-9, PHENOBARBITAL AND BETA-NAPHTHOFLAVONE, Method: PREINCUBATION",inactive; negative
same,mutagenic call,[7],inactive; negative
same,mutagenic call,"Test System: AMES SALMONELLA TYPHIMURIUM, Strain/Indicator: TA1535, Metabolic Activation: RAT, LIVER, S-9, PHENOBARBITAL AND BETA-NAPHTHOFLAVONE, Method: PREINCUBATION",inactive; negative
same,mutagenic call,[8],inactive; negative
same,mutagenic call,"Test System: AMES SALMONELLA TYPHIMURIUM, Strain/Indicator: TA1537, Metabolic Activation: RAT, LIVER, S-9, PHENOBARBITAL AND BETA-NAPHTHOFLAVONE, Method: PREINCUBATION",inactive; negative
same,mutagenic call,"Test System: E. COLI, Strain/Indicator: WP2UVRA/PKM101, Metabolic Activation: NONE, Method: PREINCUBATION",inactive; negative
same,mutagenic call,"Test System: E. COLI, Strain/Indicator: WP2UVRA/PKM101, Metabolic Activation: RAT, LIVER, S-9, PHENOBARBITAL AND BETA-NAPHTHOFLAVONE, Method: PREINCUBATION",inactive; negative
same,mutagenic call,"Test System: E. COLI, Strain/Indicator: WP2UVRA/PKM101, Metabolic Activation: RAT, LIVER, S-9, SODIUM PHENOBARBITAL AND 5,6-BENZOFLAVONE, Method: PREINCUBATION",inactive; negative
same,mutagenic call,"Test System: E. COLI, Strain/Indicator: WP2UVRA, Metabolic Activation: NONE, Method: PREINCUBATION",inactive; negative
same,mutagenic call,"Test System: E. COLI, Strain/Indicator: WP2UVRA, Metabolic Activation: RAT, LIVER, S-9, PHENOBARBITAL AND BETA-NAPHTHOFLAVONE, Method: PREINCUBATION",inactive; negative
CCCCCOc1ccc(N=O)cc1,mutagenic call,[10],active; positive
O=c1c2[nH]c3ccccc3c2nnn1/N=C/c1ccc([N+](=O)[O-])cc1,mutagenic call,[1],active; positive
same,mutagenic call,[2],active; positive
same,mutagenic call,[3],active; positive
same,mutagenic call,[4],active; positive
same,mutagenic call,[5],active; positive
same,mutagenic call,[6],active; positive
same,mutagenic call,[9],inactive; negative
same,mutagenic call,"Test System: AMES SALMONELLA TYPHIMURIUM, Strain/Indicator: TA102, Metabolic Activation: RAT, LIVER, S-9, AROCLOR 1254 (10%), Method: PREINCUBATION",inactive; negative
CC(C)CN(N=O)/C(N)=N/[N+](=O)[O-],mutagenic call,"Test System: AMES SALMONELLA TYPHIMURIUM, Strain/Indicator: TA100, Metabolic Activation: RAT, LIVER, S-9, KC500 OR PHENOBARBITAL, Method: LIQUID SUSPENSION",active; positive
same,mutagenic call,"Test System: AMES SALMONELLA TYPHIMURIUM, Strain/Indicator: TA1535, Metabolic Activation: NONE, Method: STANDARD PLATE",active; positive
same,mutagenic call,"Test System: AMES SALMONELLA TYPHIMURIUM, Strain/Indicator: TA1535, Metabolic Activation: RAT, LIVER, S-9, KC500 OR PHENOBARBITAL, Method: LIQUID SUSPENSION",active; positive
O=[N+]([O-])c1ccc(-c2csc(Nc3ccccc3)n2)o1,mutagenic call,"Test System: E. COLI WP2, Strain/Indicator: WP2, Metabolic Activation: NONE, Method: SPOT",active; positive
Nc1cc(Cl)cc(Cl)c1,mutagenic call,"End Point: In vitro chromosomal aberrations, Test System: Chinese hamster lung (CHL/IU) cells, Metabolic Activation: Rat, Liver, S9, Phenobarbital and 5,6-benzoflavone",active; positive (structural changes and ploidy)
same,mutagenic call,[11],inactive; negative
same,mutagenic call,"Test System: AMES SALMONELLA TYPHIMURIUM, Strain/Indicator: TA98, Metabolic Activation: RAT, LIVER, S-9, AROCLOR 1254, Method: STANDARD PLATE",inactive; negative
same,mutagenic call,[10],inactive; negative
same,mutagenic call,"Test System: AMES SALMONELLA TYPHIMURIUM, Strain/Indicator: TA100, Metabolic Activation: RAT, LIVER, S-9, AROCLOR 1254, Method: STANDARD PLATE",inactive; negative
same,mutagenic call,"Test System: UDS RODENT HEPATOCYTES, Strain/Indicator: THY INCORP (NON-S-PHASE), Metabolic Activation: NONE, Method: AUTORADIOGRAPHY",inactive; negative
OCc1cccc2c1-c1cccc3cccc-2c13,mutagenic call,[11],inactive; negative
same,mutagenic call,[10],inactive; negative
O=C1C=C(CCl)CO1,mutagenic call,[10],active; positive
